Source: US20240067651A1 (Biohaven Therapeutics Ltd., priority 2019, published 2024)

Tests used:
[1] = Caco-2 Permeability Assay; type: in vitro ADME, human; conditions: human, Caco-2, pH 7.4
Method in brief: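 Bidirectional transport at 37 °C for 90 min, 10 μM donor concentration, with or without Pgp inhibitor, across 21-day Caco-2 monolayers with TEER >600 […] in HEPES-buffered HBSS, pH 7.4. LC-MS/MS of donor and receiver samples gives Papp, B→A/A→B efflux ratio and mass recovery.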

[2] = Stability in Simulated Gastric Fluid (SGF); type: in vitro ADME; parameters: key: % parent compound remaining relative to 0-minute sample; conditions: % remaining @ 1 h
Method in brief: (§1)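 LC-MS/MS read-out of intact compound (2 μg/mL final) over 60 minutes at 37° C; gastric medium pH 1.2 with pepsin, intestinal medium pH 6.8 with pancreatin. Half-life from ln(% remaining) against time.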

[3] = Stability in Simulated Intestinal Fluid (SIF); type: in vitro ADME; parameters: key: % parent compound remaining relative to 0-minute sample; conditions: % remaining @ 1 h
Method in brief: as §1

Plasma Stability = type: in vitro ADME, human; conditions: % remaining @ 1 h
Method in brief: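 Parent compound quantified by LC-MS/MS after acetonitrile precipitation, reported as percent of control remaining (triplicate). Incubation: 1 hour, 37° C, fresh human plasma, compound at 1 μM.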

SMILES: CC(C)OCCn1c(=S)n(COC(=O)[C@@H](Cc2ccccc2)NC(=O)OC(C)(C)C)c(=O)c2c1ccn2COC(=O)[C@@H](Cc1ccccc1)NC(=O)OC(C)(C)C [Example 307, [3-({[(2R)-2-{[(tert-butoxy)carbonyl]amino}-3-phenylpropanoyl]oxy}methyl)-4-oxo-1-[2-(propan-2-yloxy)ethyl]-2-sulfanylidene-1H,2H,3H,4H,5H-pyrrolo[3,2-d]pyrimidin-5-yl]methyl (2R)-2-{[(tert-butoxy)carbonyl]amino}-3-phenylpropanoate]
- Papp at 90 min, 10 µM [1]: 0.334 ×10⁻⁶ cm/s
- SGF [2]: 26% @ 1 h
- SIF [3]: 43% @ 1 h
- human Plasma stability (Plasma Stability): 99% @ 1 h

SMILES: CC(C)OCCn1c(=S)[nH]c(=O)c2c1ccn2COC(=O)[C@@H](N)Cc1ccccc1.O=C(O)C(F)(F)F [Example 308, trifluoroacetic acid {4-oxo-1-[2-(propan-2-yloxy)ethyl]-2-sulfanylidene-1H,2H,3H,4H,5H-pyrrolo[3,2-d]pyrimidin-5-yl}methyl (2S)-2-amino-3-phenylpropanoate]
- Papp at 90 min, 10 µM [1]: < 0.364 ×10⁻⁶ cm/s
- SGF [2]: 97% @ 1 h
- SIF [3]: 44% @ 1 h
- human Plasma stability (Plasma Stability): 2.5% @ 1 h

SMILES: CC(C)OCCn1c(SCOC(=O)[C@@H](N)Cc2ccccc2)nc(=O)c2c1ccn2COC(=O)[C@@H](N)Cc1ccccc1.O=C(O)C(F)(F)F.O=C(O)C(F)(F)F [Example 309, bis(trifluoroacetic acid) {[5-({[(2S)-2-amino-3-phenylpropanoyl]oxy}methyl)-4-oxo-1-[2-(propan-2-yloxy)ethyl]-1H,4H,5H-pyrrolo[3,2-d]pyrimidin-2-yl]sulfanyl}methyl (2S)-2-amino-3-phenylpropanoate]
- Papp at 90 min, 10 µM [1]: < 0.123 ×10⁻⁶ cm/s
- SGF [2]: 98% @ 1 h
- SIF [3]: 86% @ 1 h
- human Plasma stability (Plasma Stability): 5% @ 1 h

SMILES: CC(C)OCCn1c(=S)[nH]c(=O)c2c1ccn2COC(=O)[C@H](N)Cc1ccccc1.O=C(O)C(F)(F)F [Example 311, trifluoroacetic acid {4-oxo-1-[2-(propan-2-yloxy)ethyl]-2-sulfanylidene-1H,2H,3H,4H,5H-pyrrolo[3,2-d]pyrimidin-5-yl}methyl (2R)-2-amino-3-phenylpropanoate]
- Papp at 90 min, 10 µM [1]: 5.44 ×10⁻⁶ cm/s
- SGF [2]: 98% @ 1 h
- SIF [3]: 7% @ 1 h
- human Plasma stability (Plasma Stability): 4% @ 1 h

SMILES: CC(C)OCCn1c(=S)n(COC(=O)[C@H](N)Cc2ccccc2)c(=O)c2c1ccn2COC(=O)[C@H](N)Cc1ccccc1.O=C(O)C(F)(F)F.O=C(O)C(F)(F)F [Example 313, bis(trifluoroacetic acid) [3-({[(2R)-2-amino-3-phenylpropanoyl]oxy}methyl)-4-oxo-1-[2-(propan-2-yloxy)ethyl]-2-sulfanylidene-1H,2H,3H,4H,5H-pyrrolo[3,2-d]pyrimidin-5-yl]methyl (2R)-2-amino-3-phenylpropanoate]
- Papp at 90 min, 10 µM [1]: 0.49 ×10⁻⁶ cm/s
- SGF [2]: 88% @ 1 h
- SIF [3]: 51% @ 1 h
- human Plasma stability (Plasma Stability): 99% @ 1 h

SMILES: CC(C)C[C@H](NC(=O)OC(C)(C)C)C(=O)OCn1c(=O)c2c(ccn2COC(=O)[C@H](CC(C)C)NC(=O)OC(C)(C)C)n(CCOC(C)C)c1=S [Example 316, [3-({[(2S)-2-{[(tert-butoxy)carbonyl]amino}-4-methylpentanoyl]oxy}methyl)-4-oxo-1-[2-(propan-2-yloxy)ethyl]-2-sulfanylidene-1H,2H,3H,4H,5H-pyrrolo [3,2-d]pyrimidin-5-yl]methyl (2S)-2-{[(tert-butoxy)carbonyl]amino}-4-methylpentanoate]
- Papp at 90 min, 10 µM [1]: 7.6 ×10⁻⁶ cm/s
- SGF [2]: 99%@ 1 h
- SIF [3]: 6%@ 1 h
- human Plasma stability (Plasma Stability): 37%@ 1 h

SMILES: CC(C)C[C@@H](NC(=O)OC(C)(C)C)C(=O)OCn1ccc2c1c(=O)[nH]c(=S)n2CCOC(C)C [Example 317, {4-oxo-1-[2-(propan-2-yloxy)ethyl]-2-sulfanylidene-1H,2H,3H,4H,5H-pyrrolo[3,2-d]pyrimidin-5-yl}methyl (2R)-2-{[(tert-butoxy)carbonyl]amino}-4-methylpentanoate]
- Papp at 90 min, 10 µM [1]: 0.093 ×10⁻⁶ cm/s
- SGF [2]: 56%@ 1 h
- SIF [3]: 30%@ 1 h
- human Plasma stability (Plasma Stability): 99%@ 1 h

SMILES: CC(C)C[C@@H](NC(=O)OC(C)(C)C)C(=O)OCSc1nc(=O)c2c(ccn2COC(=O)[C@@H](CC(C)C)NC(=O)OC(C)(C)C)n1CCOC(C)C [Example 318, {[5-({[(2R)-2-{[(tert-butoxy)carbonyl]amino}-4-methylpentanoyl]oxy}methyl)-4-oxo-1-[2-(propan-2-yloxy)ethyl]-1H,4H,5H-pyrrolo[3,2-d]pyrimidin-2-yl]sulfanyl}methyl (2R)-2-{[(tert-butoxy)carbonyl]amino}-4-methylpentanoate]
- Papp at 90 min, 10 µM [1]: 25.4 ×10⁻⁶ cm/s
- SGF [2]: 81%@ 1 h
- SIF [3]: 2%@ 1 h
- human Plasma stability (Plasma Stability): 85%@ 1 h

SMILES: CC(C)C[C@@H](NC(=O)OC(C)(C)C)C(=O)OCn1c(=O)c2c(ccn2COC(=O)[C@@H](CC(C)C)NC(=O)OC(C)(C)C)n(CCOC(C)C)c1=S [Example 319, [3-({[(2R)-2-{[(tert-butoxy)carbonyl]amino}-4-methylpentanoyl]oxy}methyl)-4-oxo-1-[2-(propan-2-yloxy)ethyl]-2-sulfanylidene-1H,2H,3H,4H,5H-pyrrolo[3,2-d]pyrimidin-5-yl]methyl (2R)-2-{[(tert-butoxy)carbonyl]amino}-4-methylpentanoate]
- Papp at 90 min, 10 µM [1]: 10.5 ×10⁻⁶ cm/s
- SGF [2]: 34%@ 1 h
- SIF [3]: 0%@ 1 h
- human Plasma stability (Plasma Stability): 42%@ 1 h

SMILES: CC(C)C[C@H](N)C(=O)OCn1ccc2c1c(=O)[nH]c(=S)n2CCOC(C)C.O=C(O)C(F)(F)F [Example 320, trifluoroacetic acid {4-oxo-1-[2-(propan-2-yloxy)ethyl]-2-sulfanylidene-1H,2H,3H,4H,5H-pyrrolo[3,2-d]pyrimidin-5-yl}methyl (2S)-2-amino-4-methylpentanoate]
- Papp at 90 min, 10 µM [1]: < 0.259 ×10⁻⁶ cm/s
- SGF [2]: 48%@ 1 h
- SIF [3]: 42%@ 1 h
- human Plasma stability (Plasma Stability): 98%@ 1 h

SMILES: CC(C)C[C@H](N)C(=O)OCSc1nc(=O)c2c(ccn2COC(=O)[C@@H](N)CC(C)C)n1CCOC(C)C.O=C(O)C(F)(F)F.O=C(O)C(F)(F)F [Example 321, bis(trifluoroacetic acid) {[5-({[(2S)-2-amino-4-methylpentanoyl]oxy}methyl)-4-oxo-1-[2-(propan-2-yloxy)ethyl]-1H,4H,5H-pyrrolo[3,2-d]pyrimidin-2-yl]sulfanyl}methyl (2S)-2-amino-4-methylpentanoate]
- Papp at 90 min, 10 µM [1]: < 0.365 ×10⁻⁶ cm/s
- SGF [2]: 92%@ 1 h
- SIF [3]: 2%@ 1 h
- human Plasma stability (Plasma Stability): 1%@ 1 h

SMILES: CC(C)C[C@H](N)C(=O)OCn1c(=O)c2c(ccn2COC(=O)[C@@H](N)CC(C)C)n(CCOC(C)C)c1=S.O=C(O)C(F)(F)F.O=C(O)C(F)(F)F [Example 322, bis(trifluoroacetic acid) [3-({[(2S)-2-amino-4-methylpentanoyl]oxy}methyl)-4-oxo-1-[2-(propan-2-yloxy)ethyl]-2-sulfanylidene-1H,2H,3H,4H,5H-pyrrolo[3,2-d]pyrimidin-5-yl]methyl (2S)-2-amino-4-methylpentanoate]
- Papp at 90 min, 10 µM [1]: < 0.106 ×10⁻⁶ cm/s
- SGF [2]: 56%@ 1 h
- SIF [3]: 61%@ 1 h
- human Plasma stability (Plasma Stability): 64%@ 1 h

SMILES: CC(C)C[C@H](N)C(=O)OCn1ccc2c1c(=O)n(CO)c(=S)n2CCOC(C)C.O=C(O)C(F)(F)F [Example 323, trifluoroacetic acid [3-(hydroxymethyl)-4-oxo-1-[2-(propan-2-yloxy)ethyl]-2-sulfanylidene-1H,2H,3H,4H,5H-pyrrolo[3,2-d]pyrimidin-5-yl]methyl (2S)-2-amino-4-methylpentanoate]
- Papp at 90 min, 10 µM [1]: < 0.355 ×10⁻⁶ cm/s
- SGF [2]: 95%@ 1 h
- SIF [3]: 52%@ 1 h
- human Plasma stability (Plasma Stability): 12%@ 1 h

SMILES: CC(C)C[C@@H](N)C(=O)OCSc1nc(=O)c2c(ccn2COC(=O)[C@H](N)CC(C)C)n1CCOC(C)C.O=C(O)C(F)(F)F.O=C(O)C(F)(F)F [Example 325, bis(trifluoroacetic acid) {[5-({[(2R)-2-amino-4-methylpentanoyl]oxy}methyl)-4-oxo-1-[2-(propan-2-yloxy)ethyl]-1H,4H,5H-pyrrolo[3,2-d]pyrimidin-2-yl]sulfanyl}methyl (2R)-2-amino-4-methylpentanoate]
- Papp at 90 min, 10 µM [1]: 0.908 ×10⁻⁶ cm/s
- SGF [2]: 99%@ 1 h
- SIF [3]: 3%@ 1 h
- human Plasma stability (Plasma Stability): 1%@ 1 h

SMILES: CC(C)C[C@@H](N)C(=O)OCn1c(=O)c2c(ccn2COC(=O)[C@H](N)CC(C)C)n(CCOC(C)C)c1=S.O=C(O)C(F)(F)F.O=C(O)C(F)(F)F [Example 326, bis(trifluoroacetic acid) [3-({[(2R)-2-amino-4-methylpentanoyl]oxy}methyl)-4-oxo-1-[2-(propan-2-yloxy)ethyl]-2-sulfanylidene-1H,2H,3H,4H,5H-pyrrolo [3,2-d]pyrimidin-5-yl]methyl (2R)-2-amino-4-methylpentanoate]
- Papp at 90 min, 10 µM [1]: < 0.338 ×10⁻⁶ cm/s
- SGF [2]: 97%@ 1 h
- SIF [3]: 9%@ 1 h
- human Plasma stability (Plasma Stability): 17%@ 1 h

SMILES: CC(C)C[C@@H](N)C(=O)OCn1ccc2c1c(=O)n(CO)c(=S)n2CCOC(C)C.O=C(O)C(F)(F)F [Example 327, trifluoroacetic acid [3-(hydroxymethyl)-4-oxo-1-[2-(propan-2-yloxy)ethyl]-2-sulfanylidene-1H,2H,3H,4H,5H-pyrrolo[3,2-d]pyrimidin-5-yl]methyl (2R)-2-amino-4-methylpentanoate]
- Papp at 90 min, 10 µM [1]: < 1.03 ×10⁻⁶ cm/s
- SGF [2]: 100%@ 1 h
- SIF [3]: 49%@ 1 h
- human Plasma stability (Plasma Stability): 21%@ 1 h
